In patent US10774087B2, “Sulfonamide derivative having coumarin skeleton” (Daiichi Sankyo Company, Limited, priority 2016, dated 2020) one finds IC50 and GI50 data, which are given here for 14 compounds.

The structures appear in SMILES notation. Structures can show the parent of a compound that is named as a salt. Where two headings read alike, the source gives them in different places.

The target in assay [1] is T1, recombinant MTHFD1 protein (dehydrogenase domain, alone) (Homo sapiens, UniProt P11586).
T1 construct: recombinant MTHFD1 protein (dehydrogenase domain, alone)
T1 sequence (P11586 2-291 limits assumed): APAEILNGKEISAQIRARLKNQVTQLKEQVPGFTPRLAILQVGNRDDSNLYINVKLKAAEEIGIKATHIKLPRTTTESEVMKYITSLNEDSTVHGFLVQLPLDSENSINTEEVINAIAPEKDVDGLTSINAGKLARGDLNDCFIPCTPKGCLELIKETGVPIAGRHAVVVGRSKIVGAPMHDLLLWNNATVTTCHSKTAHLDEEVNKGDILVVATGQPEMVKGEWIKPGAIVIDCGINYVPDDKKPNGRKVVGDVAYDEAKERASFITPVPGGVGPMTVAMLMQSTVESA
The assay is described as follows: MTHFD1 dehydrogenase assay. In kind it is biochemical.

Assay [2] deals with T2, recombinant MTHFD2 protein (Homo sapiens, UniProt P13995).
T2 construct: containing recombinant MTHFD2 protein
T2 sequence (P13995 36-350): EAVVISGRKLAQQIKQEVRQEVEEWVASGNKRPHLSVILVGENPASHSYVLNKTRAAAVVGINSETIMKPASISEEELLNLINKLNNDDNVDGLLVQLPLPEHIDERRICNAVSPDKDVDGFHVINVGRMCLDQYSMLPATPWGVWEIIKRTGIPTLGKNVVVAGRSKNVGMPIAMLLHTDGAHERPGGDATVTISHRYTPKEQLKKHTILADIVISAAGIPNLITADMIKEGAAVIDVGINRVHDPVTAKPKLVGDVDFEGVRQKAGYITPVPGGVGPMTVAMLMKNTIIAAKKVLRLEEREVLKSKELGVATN
In words: MTHFD2 dehydrogenase assay. In kind it is biochemical.

Assay [3] has as its system MDA-MB-231 luc cells. The assay is described as follows: Growth inhibition test using MDA-MB-231 luc cells. In kind it is cell-based, human.
Where [4] appears, read: 165.4 μM NADP, room temperature 30 minutes, absorbance 355 nm.
The mark [5] stands for this setting: 200 μM NAD, room temperature 30 minutes, absorbance 355 nm.
[6] abbreviates: human breast cancer MDA-MB-231 luc, Day 3, cell-titer Glo, Day 0 value subtracted, read-out: GI50.

For the compound `CCS(=O)(=O)Nc1ccc(C(=O)N2CCc3c(c(=O)oc4c(C)c(N5CCN(C)[C@@H](C)C5)cc(C)c34)C2)cc1OC(F)(F)F` [Example 10, N-[4-({8-[(3S)-3,4-Dimethylpiperazin-1-yl]-7,10-dimethyl-5-oxo-1,5-dihydro-2H-chromeno[3,4-c]pyridin-3(4H)-yl}carbonyl)-2-(trifluoromethoxy)phenyl]ethanesulfonamide], the results for the concentration for half-maximal inhibition (IC50) in assay [1] (setting [4]) and in assay [2] (setting [5]) were 220 nM and 2.7 nM, respectively. Besides, in assay [3] (setting [6]), the GI50 (in general, the concentration giving 50% growth inhibition) amounted to 17 nM.

For the compound `Cc1c(N2CCN(C)[C@@H](C)C2)cc(C)c2c3c(c(=O)oc12)CN(C(=O)c1ccc(NS(C)(=O)=O)c(Cl)c1)CC3` [Example 7, N-[2-Chloro-4-({8-[(3S)-3,4-dimethylpiperazin-1-yl]-7,10-dimethyl-5-oxo-1,5-dihydro-2H-chromeno[3,4-c]pyridin-3(4H)-yl}carbonyl)phenyl]methanesulfonamide], the IC50 (usually the point on the concentration scale where inhibition reaches its midpoint) in assay [1] came to 560 nM; in assay [2], 4.4 nM. For the same compound, in assay [3] (Homo sapiens, MDA-MB-231), growth was halved (GI50) at 100 nM.

Regarding `Cc1c(N2CCN(C)[C@@H](C)C2)ccc2c3c(c(=O)oc12)CN(C(=O)c1ccc(NS(C)(=O)=O)c(C(F)(F)F)c1)CC3` [Example 6, N-[4-({8-[(3S)-3,4-Dimethylpiperazin-1-yl]-7-methyl-5-oxo-1,5-dihydro-2H-chromeno[3,4-c]pyridin-3(4H)-yl}carbonyl)-2-(trifluoromethyl)phenyl]methanesulfonamide], the results for the IC50 in assay [1] and in assay [2] were 1500 nM and 6.4 nM, respectively. The compound further showed a GI50 in assay [3] (Homo sapiens, MDA-MB-231) of 210 nM.

In the case of `CCS(=O)(=O)Nc1ccc(C(=O)N2CCc3c(c(=O)oc4c(C)c(N5CCN(C)[C@@H](C)C5)ccc34)C2)cc1OC(F)(F)F` [Example 9, N-[4-({8-[(3S)-3,4-Dimethylpiperazin-1-yl]-7-methyl-5-oxo-1,5-dihydro-2H-chromeno[3,4-c]pyridin-3(4H)-yl}carbonyl)-2-(trifluoromethoxy)phenyl]ethanesulfonamide], the results for the IC50 in assay [1] and in assay [2] were 400 nM and 4.7 nM, respectively. The compound further registered a GI50 in assay [3] (Homo sapiens, MDA-MB-231) of 120 nM.

In turn, `Cc1c(N2CCN(C)[C@@H](C)C2)ccc2c3c(c(=O)oc12)CN(C(=O)c1ccc(NS(C)(=O)=O)c(OC(F)(F)F)c1)CC3` [Example 5, N-[4-({8-[(3S)-3,4-Dimethylpiperazin-1-yl]-7-methyl-5-oxo-1,5-dihydro-2H-chromeno[3,4-c]pyridin-3(4H)-yl}carbonyl)-2-(trifluoromethoxy)phenyl]methanesulfonamide] returned a GI50 in assay [3] (Homo sapiens, MDA-MB-231) of 140 nM.

With `Cc1c(N2CCN(C)CC2)ccc2c3c(c(=O)oc12)CN(C(=O)c1ccc(NS(=O)(=O)C2CC2)c(Cl)c1)CC3` [Example 2, N-(2-Chloro-4-{[7-methyl-8-(4-methylpiperazin-1-yl)-5-oxo-1,5-dihydro-2H-chromeno[3,4-c]pyridin-3(4H)-yl]carbonyl}phenyl)cyclopropanesulfonamide], the values for the IC50 in assay [1] (setting [4]) and in assay [2] (setting [5]) were 2200 nM and 28 nM, respectively. In addition, the GI50 in assay [3] (setting [6]) was 1100 nM.

`Cc1c(N2CCN(C)[C@@H](C)C2)cc(C)c2c3c(c(=O)oc12)CN(C(=O)c1ccc(NS(C)(=O)=O)c(OC(F)(F)F)c1)CC3` [Example 8, N-[4-({8-[(3S)-3,4-Dimethylpiperazin-1-yl]-7,10-dimethyl-5-oxo-1,5-dihydro-2H-chromeno[3,4-c]pyridin-3(4H)-yl}carbonyl)-2-(trifluoromethoxy)phenyl]methanesulfonamide]: the IC50 was found to be 200 nM in assay [1] and 2.6 nM in assay [2]. Besides, the GI50 in assay [3] (Homo sapiens, MDA-MB-231) turned out to be 45 nM.

With `CC[C@H]1CN(c2ccc3c4c(c(=O)oc3c2C)CN(C(=O)c2ccc(NS(C)(=O)=O)c(OC(F)(F)F)c2)CC4)CCN1C` [Example 11, N-[4-({8-[(3S)-3-Ethyl-4-methylpiperazin-1-yl]-7-methyl-5-oxo-1,5-dihydro-2H-chromeno[3,4-c]pyridin-3(4H)-yl}carbonyl)-2-(trifluoromethoxy)phenyl]methanesulfonamide], the IC50 in assay [1] came out at 360 nM; in assay [2] it was 5.1 nM. It took 120 nM to inhibit growth in assay [3] (Homo sapiens, MDA-MB-231) by half (GI50).

With `Cc1c(N2CCN(C)CC2)ccc2c3c(c(=O)oc12)CN(C(=O)c1ccc(NS(C)(=O)=O)c(Cl)c1)CC3` [Example 1, N-(2-chloro-4-{[7-methyl-8-(4-methylpiperazin-1-yl)-5-oxo-1,5-dihydro-2H-chromeno[3,4-c]pyridin-3(4H)-yl]carbonyl}phenyl)methanesulfonamide], the IC50 in assay [2] (setting [5]) is 48 nM. In assay [3] (Homo sapiens, MDA-MB-231), this compound displayed a GI50 of 940 nM.

On to `Cc1c(N2CCN(C)C(C)(C)C2)ccc2c3c(c(=O)oc12)CN(C(=O)c1ccc(NS(C)(=O)=O)c(OC(F)(F)F)c1)CC3` [Example 12, N-[4-{[7-Methyl-5-oxo-8-(3,3,4-trimethylpiperazin-1-yl)-1,5-dihydro-2H-chromeno[3,4-c]pyridin-3(4H)-yl]carbonyl}-2-(trifluoromethoxy)phenyl]methanesulfonamide], for which the figures for the IC50 in assay [1] and in assay [2] were 710 nM and 75 nM, respectively. This compound returned a GI50 in assay [3] (Homo sapiens, MDA-MB-231) of 66 nM.

Take `Cc1c(N2CCN(C)CC2)ccc2c3c(c(=O)oc12)CN(C(=O)c1ccc(NS(C)(=O)=O)c(OC(F)(F)F)c1)CC3` [Example 3, N-[4-{[7-Methyl-8-(4-methylpiperazin-1-yl)-5-oxo-1,5-dihydro-2H-chromeno[3,4-c]pyridin-3(4H)-yl]carbonyl}-2-(trifluoromethoxy)phenyl]methanesulfonamide]: the IC50 in assay [2] (setting [5]) amounted to 21 nM. In assay [3] (Homo sapiens, MDA-MB-231), this compound registered a GI50 of 380 nM.

For the compound `Cc1c(N2C[C@@H](C)N(C)[C@@H](C)C2)ccc2c3c(c(=O)oc12)CN(C(=O)c1ccc(NS(C)(=O)=O)c(Cl)c1)CC3` [Example 14, N-[2-Chloro-4-({7-methyl-5-oxo-8-[(3R,5S)-3,4,5-trimethylpiperazin-1-yl]-1,5-dihydro-2H-chromeno[3,4-c]pyridin-3(4H)-yl}carbonyl)phenyl]methanesulfonamide], the IC50 in assay [2] (setting [5]) was 37 nM. In assay [3] (Homo sapiens, MDA-MB-231), this compound registered a GI50 of 780 nM.

On to `Cc1c(N2CCN[C@@H](C)C2)ccc2c3c(c(=O)oc12)CN(C(=O)c1ccc(NS(C)(=O)=O)c(OC(F)(F)F)c1)CC3` [Example 13, N-[4-({7-Methyl-8-[(3S)-3-methylpiperazin-1-yl]-5-oxo-1,5-dihydro-2H-chromeno[3,4-c]pyridin-3(4H)-yl}carbonyl)-2-(trifluoromethoxy)phenyl]methanesulfonamide hydrochloride], for which the IC50 came to 900 nM in assay [1] (setting [4]) and 7.8 nM in assay [2] (setting [5]). This compound also had a GI50 in assay [3] (Homo sapiens, MDA-MB-231) of 260 nM.

For `Cc1c(N2CCN(C)[C@@H](C)C2)ccc2c3c(c(=O)oc12)CN(C(=O)c1ccc(NS(C)(=O)=O)c(Cl)c1)CC3` [Example 4, N-[2-Chloro-4-({8-[(3S)-3,4-dimethylpiperazin-1-yl]-7-methyl-5-oxo-1,5-dihydro-2H-chromeno[3,4-c]pyridin-3(4H)-yl}carbonyl)phenyl]methanesulfonamide], the IC50 in assay [2] (setting [5]) turned out to be 9.3 nM. This compound came in with a GI50 in assay [3] (Homo sapiens, MDA-MB-231) of 200 nM.
